Source: patent US12091425B2 (AMGEN INC., priority 2016, dated 2024)
pIC50: −log10 of the molar value.

Experiments:
[1] = biological target: T1, Mcl-1/Bim interaction, recombinant human Mcl-1 (171-327) (Homo sapiens, UniProt Q07820); test: Cell free Mcl-1: Bim Affinity Assay (Mcl-1 HTRF); assay type: binding; conditions: TR-FRET, 0.1 nM Mcl-1 (171-327), 0.05 nM biotin-Bim (51-76)
T1 construct: made in house
In short: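 Biotin-Bim(51-76) peptide, TR-FRET readout, overnight incubation; IC50 from duplicate competition curves, 4-parameter fit.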

[2] = system: OPM-2 human multiple myeloma cell line; test: Cell Viability Assay (OPM-2 10 FBS); assay type: cell-based; conditions: Homo sapiens, OPM-2, 16 h, OPM-2 cells, 16 h incubation, CellTiter-Glo
In short: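 OPM-2 myeloma cells, 3000/well in medium with 10% FBS, exposed to serially diluted compounds for 16 h at 37° C./5% CO2. Viability read by CellTiter-Glo luminescence; IC50 from 4-parameter logistic fit.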

T1 sequence (Q07820 171-327): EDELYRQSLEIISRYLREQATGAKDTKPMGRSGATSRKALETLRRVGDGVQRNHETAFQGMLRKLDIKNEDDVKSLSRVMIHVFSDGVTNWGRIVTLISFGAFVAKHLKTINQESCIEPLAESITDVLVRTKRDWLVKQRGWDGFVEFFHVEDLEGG

Row | Compound | pIC50 [1] | pIC50 [2]
1 | CC[C@@H]1CC/C=C/[C@H](OCc2nnc(C)o2)[C@@H]2CC[C@H]2CN2C[C@@]3(CCCc4cc(Cl)ccc43)COc3ccc(cc32)C(=O)NS1(=O)=O [Example 966, (1S,3′R,6′R,7′S,8′E,12′R)-6-chloro-12′-ethyl-7′-((5-methyl-1,3,4-oxadiazol-2-yl)methoxy)-3,4-dihydro-2H,15′H-spiro[naphthalene-1,22′-[20]oxa[13]thia[1,14]diazatetracyclo[14.7.2.0^3,6.0^19,24]pentacosa [8,16,18,24]tetraen]-15′-one 13′,13′-dioxide] | 9.46 | 6.12
2 | CC[C@@H]1CC/C=C/[C@H](OCc2cc(C)nn2C)[C@@H]2CC[C@H]2CN2C[C@@]3(CCCc4cc(Cl)ccc43)COc3ccc(cc32)C(=O)NS1(=O)=O [Example 967, (1S,3′R,6′R,7′S,8′E,12′R)-6-chloro-7′-((1,3-dimethyl-1H-pyrazol-5-yl)methoxy)-12′-ethyl-3,4-dihydro-2H,15′H-spiro[naphthalene-1,22′-[20]oxa[13]thia[1,14]diazatetracyclo[14.7.2.0^3,6.0^19,24]pentacosa [8,16,18,24]tetraen]-15′-one 13′,13′-dioxide] | 8.97 | 6.34
3 | CC[C@@H]1CC/C=C/[C@H](OCc2ncccn2)[C@@H]2CC[C@H]2CN2C[C@@]3(CCCc4cc(Cl)ccc43)COc3ccc(cc32)C(=O)NS1(=O)=O [Example 977, (1S,3′R,6′R,7′S,8′E,12′R)-6-chloro-12′-ethyl-7′-(2-pyrimidinylmethoxy)-3,4-dihydro-2H,15′H-spiro[naphthalene-1,22′-[20]oxa[13]thia[1,14]diazatetracyclo[14.7.2.0^3,6.0^19,24]pentacosa [8,16,18,24]tetraen]-15′-one 13′,13′-dioxide] | 9.48 | 6.58
4 | CC[C@@H]1CC/C=C/[C@H](OCc2ncco2)[C@@H]2CC[C@H]2CN2C[C@@]3(CCCc4cc(Cl)ccc43)COc3ccc(cc32)C(=O)NS1(=O)=O [Example 986, (1S,3′R,6′R,7′S,8′E,12′R)-6-chloro-12′-ethyl-7′-(1,3-oxazol-2-ylmethoxy)-3,4-dihydro-2H,15′H-spiro[naphthalene-1,22′-[20]oxa[13]thia[1,14]diazatetracyclo[14.7.2.0^3,6.0^19,24]pentacosa [8,16,18,24]tetraen]-15′-one 13′,13′-dioxide] | 9.32 | 6.57
5 | CC[C@@H]1CC/C=C/[C@H](OCc2nnn(C)n2)[C@@H]2CC[C@H]2CN2C[C@@]3(CCCc4cc(Cl)ccc43)COc3ccc(cc32)C(=O)NS1(=O)=O [Example 987, (1S,3′R,6′R,7′S,8′E,12′R)-6-chloro-12′-ethyl-7′-((2-methyl-2H-tetrazol-5-yl)methoxy)-3,4-dihydro-2H,15′H-spiro[naphthalene-1,22′-[20]oxa[13]thia[1,14]diazatetracyclo[14.7.2.0^3,6.0^19,24]pentacosa [8,16,18,24]tetraen]-15′-one 13′,13′-dioxide] | 9.21 | 6.41
6 | CC[C@@H]1CC/C=C/[C@H](OCc2nnnn2C)[C@@H]2CC[C@H]2CN2C[C@@]3(CCCc4cc(Cl)ccc43)COc3ccc(cc32)C(=O)NS1(=O)=O [Example 988, (1S,3′R,6′R,7′S,8′E,12′R)-6-chloro-12′-ethyl-7′-((1-methyl-1H-tetrazol-5-yl)methoxy)-3,4-dihydro-2H,15′H-spiro[naphthalene-1,22′-[20]oxa[13]thia[1,14]diazatetracyclo[14.7.2.0^3,6.0^19,24]pentacosa [8,16,18,24]tetraen]-15′-one 13′,13′-dioxide] | 9.27 | 6.00
7 | CC[C@@H]1CC/C=C/[C@H](OCCS(=O)(=O)N(C)C)[C@@H]2CC[C@H]2CN2C[C@@]3(CCCc4cc(Cl)ccc43)COc3ccc(cc32)C(=O)NS1(=O)=O [Example 989, 2-(((1S,3′R,6′R,7′S,8′E,12′R)-6-chloro-12′-ethyl-13′,13′-dioxido-15′-oxo-3,4-dihydro-2H-spiro[naphthalene-1,22′-[20]oxa[13]thia[1,14]diazatetracyclo[14.7.2.0^3,6.0^19,24]pentacosa [8,16,18,24]tetraen]-7′-yl)oxy)-N,N-dimethylethanesulfonamide] | 9.07 | 6.48
